Experimental data as given in US7563813B2, “Iminothiazolidinone derivatives as SFRP-1 antagonists” (Wyeth, priority 2005, dated 2009).

Biological target: T1, hSFRP-1 (Homo sapiens, UniProt Q8N474)
T1 construct: expressed in transfected cells; host or cells: U2OS osteosarcoma cells (ATCC, HTB 96), transient co-transfection with Wnt 3, Wnt3A or Wnt 1, 16x TCF-tk-Luciferase reporter and CMV-beta-gal
T1 sequence (Q8N474 32-314): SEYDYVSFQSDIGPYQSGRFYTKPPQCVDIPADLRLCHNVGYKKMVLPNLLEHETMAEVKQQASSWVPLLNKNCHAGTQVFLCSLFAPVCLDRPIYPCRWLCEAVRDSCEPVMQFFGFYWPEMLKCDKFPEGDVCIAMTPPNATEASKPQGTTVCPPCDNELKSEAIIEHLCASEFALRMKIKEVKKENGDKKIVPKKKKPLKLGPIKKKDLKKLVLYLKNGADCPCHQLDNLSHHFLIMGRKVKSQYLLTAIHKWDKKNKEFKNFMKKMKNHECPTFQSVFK
Test: Cell-Based Assay for In Vitro Measurement of SFRP-1/SARP2 Antagonist Activity (U2OS cells, 16x TCF-tk-Luciferase reporter, Wnt + hSFRP-1 co-transfection)
Conditions: initial single dose screening at 10 μM; for fold induction at 10 µM: luciferase reporter activity, fold induction over SFRP-1 control; for Ratio: ratio not defined
Description: Cell-Based Assay for In Vitro Measurement of SFRP-1/SARP2 Antagonist Activity
The following cell-based assay can be used to identify inhibitors of SFRP-1.
The osteosarcoma cell line, U2OS (ATCC, HTB 96), was passaged twice a week with growth medium (McCoy's SA medium containing 10% (v/v) fetal calf serum, 2 mM GlutaMAX-1, and 1% (v/v) Penicillin-Streptomycin). The cells were maintained in vented flasks at 37° C. inside a 5% CO2/95% humidified air incubator. One day prior to transfection, the cells were plated with growth medium at 25,000 cells/well into 96-well plates and incubated at 37° C. overnight.
The growth medium was removed, and the cells were washed once with OPTIMEM I (Gibco-BRL) medium (100 μl/well) to remove the serum and antibiotics. The wash medium was removed, and the cells were re-fed with OPTI-MEM I medium (100 μl/well). For each well of cells to be transfected, the following DNA's were diluted together in 25 μl OPTI-MEM I medium: 0.1 μg 16× TCF-tk-Luciferase reporter, 0.02 μg Wnt 3, Wnt3A, Wnt 1 or empty vector (Upstate Biotechnology), 0.075 μg hSFRP-1 or empty vector (pcDNA3.1, Invitrogen), and 0.025 μg CMV-®gal (Clonetech). For each well of cells to be transfected, 1 μl of Lipofectamine 2000 reagent (Invitrogen) was diluted in 25 μl OPTI-MEM I medium and incubated at room temperature for 5 minutes. The diluted DNA's were then combined with the diluted Lipofectamine 2000 (LF2000), and the mixture was incubated at room temperature for 20 minutes. Fifty μl of the DNA-LF 2000 mixture was added to each well, and the plate(s) were incubated at 37° C. in a 5% CO2/95% humidified air incubator for 4 hours. The cells were washed once with 150 μl/well of experimental medium (phenol red-free RPMI Medium 1640 containing 2% fetal bovine serum, 2 mM GlutaMAX-1, and 1% Penicillin-Streptomycin). Finally, the cells were treated overnight at 37° C. with 200 μl/well of experimental medium containing either vehicle (typically DMSO) or diluted compound in replicates of 8 wells/compound.
Initial single dose screening of test compounds was done at 10 μM.
Dose-response experiments were initially performed with the compounds in log increases from 1-10,000 nM. From these dose-response curves, EC50 values were generated.
After treatment, the cells were washed twice with 150 μl/well of PBS without calcium or magnesium and were lysed with 50 μl/well of 1× cell culture lysis reagent (Promega Corporation) on a shaker at room temperature for 30 minutes. Thirty μl aliquots of the cell lysates were transferred to 96-well luminometer plates, and luciferase activity was measured in a MicroLumat PLUS luminometer (EG&G Berthold), or a Victor (PerkinElmer Life Sciences) using […] of luciferase substrate (Promega Corporation). Following the injection of substrate, luciferase activity was measured for 10 seconds after a 1.6 second delay. Similarly, 10 μl aliquots of the cell lysates were transferred to separate 96-well luminometer plates, and 50 μl of Galacton chemiluminescent substrate (Tropix) was added to each well. The plates were covered and incubated on a rotary shaker at room temperature for one hour. ®gal activity was measured in a MicroLumat PLUS luminometer or Victor using 100 μl/well of Light Emission Accelerator (Tropix). Following the injection of the accelerator, ®gal activity was measured for 10 seconds after a 1.6 second delay. The luciferase and ®gal activity data were transferred from the luminometer to a PC and analyzed using the SAS/Excel program. After the luciferase activity was normalized to ®gal, the SAS/Excel program was used to determine the mean and standard deviation of each treatment, to analyze the data for statistical significance, and to determine EC50 values.
As an alternative to co-transfection in a 96 well plate, the U2OS cells were transfected in T225 flasks and the transfected cells were frozen. The frozen cells were thawed and plated on a 96 well plate and the assay was carried out as detailed above. […]

Structure (SMILES) | fold induction at 10 µM | Ratio
CCOC(=O)c1c(NC(=O)CC2SC(N)=NC2=O)sc(C)c1C (centres unmarked) [Example 1, Ethyl 2-{[(2-amino-4-oxo-4,5-dihydro-1,3-thiazol-5-yl)acetyl]amino}-4,5-dimethylthiophene-3-carboxylate] | 2.5 | 2.5
N=C1NC(=O)C(CC(=O)Nc2cccc(Br)c2)S1 (centres unmarked) [Example 2, N-(3-bromophenyl)-2-(2-imino-4-oxo-1,3-thiazolidin-5-yl)acetamide] | 2 | 1.8
N#Cc1cccc(NC(=O)CC2SC(=N)NC2=O)c1 (centres unmarked) [Example 4, N-(3-cyanophenyl)-2-(2-imino-4-oxo-1,3-thiazolidin-5-yl)acetamide] | 1.3 | 1.2
CC(=O)Nc1cccc(NC(=O)CC2SC(=N)NC2=O)c1 (centres unmarked) [Example 5, N-[3-(acetylamino)phenyl]-2-(2-imino-4-oxo-1,3-thiazolidin-5-yl)acetamide] | 1.3 | 1.2
N=C1NC(=O)C(CC(=O)Nc2ccc(Cl)c(Cl)c2)S1 (centres unmarked) [Example 6, N-(3,4-dichlorophenyl)-2-(2-imino-4-oxo-1,3-thiazolidin-5-yl)acetamide] | 1.7 | 1.7
N=C1NC(=O)C(CC(=O)Nc2ccc(Cl)cc2Cl)S1 (centres unmarked) [Example 7, N-(2,4-dichlorophenyl)-2-(2-imino-4-oxo-1,3-thiazolidin-5-yl)acetamide] | 1 | 1.0
N=C1NC(=O)C(CC(=O)Nc2cccc(F)c2F)S1 (centres unmarked) [Example 8, N-(2,3-difluorophenyl)-2-(2-imino-4-oxo-1,3-thiazolidin-5-yl)acetamide] | 1.1 | 1.0
N=C1NC(=O)C(CC(=O)Nc2ccc(F)c(F)c2)S1 (centres unmarked) [Example 9, N-(3,4-difluorophenyl)-2-(2-imino-4-oxo-1,3-thiazolidin-5-yl)acetamide] | 1.6 | 1.5
N=C1NC(=O)C(CC(=O)Nc2ccc(F)c(Cl)c2)S1 (centres unmarked) [Example 11, N-(3-chloro-4-fluorophenyl)-2-(2-imino-4-oxo-1,3-thiazolidin-5-yl)acetamide] | 1.9 | 1.7
Cc1cc(NC(=O)CC2SC(=N)NC2=O)on1 (centres unmarked) [Example 13, 2-(2-imino-4-oxo-1,3-thiazolidin-5-yl)-N-(3-methylisoxazol-5-yl)acetamide] | 1 | 1.0
C#Cc1cccc(NC(=O)CC2SC(=N)NC2=O)c1 (centres unmarked) [Example 14, N-(3-ethynylphenyl)-2-(2-imino-4-oxo-1,3-thiazolidin-5-yl)acetamide] | 1.8 | 1.6
CSc1cccc(NC(=O)CC2SC(=N)NC2=O)c1 (centres unmarked) [Example 15, 2-(2-imino-4-oxo-1,3-thiazolidin-5-yl)-N-[3-(methylthio)phenyl]acetamide] | 1.5 | 1.2
CCOC(=O)c1c(C)csc1NC(=O)CC1SC(=N)NC1=O (centres unmarked) [Example 16, ethyl 2-{[(2-imino-4-oxo-1,3-thiazolidin-5-yl)acetyl]amino}-4-methylthiophene-3-carboxylate] | 2 | 1.9
N=C1NC(=O)C(CC(=O)Nc2cccc(C(N)=O)c2)S1 (centres unmarked) [Example 24, 3-{[(2-imino-4-oxo-1,3-thiazolidin-5-yl)acetyl]amino}benzamide] | 1.2 | 1.0
CCOC(=O)c1cccc(NC(=O)CC2SC(=N)NC2=O)c1 (centres unmarked) [Example 25, ethyl 3-{[(2-imino-4-oxo-1,3-thiazolidin-5-yl)acetyl]amino}benzoate] | 1.7 | 1.4
N=C1NC(=O)C(CC(=O)Nc2cccc(Oc3ccccc3)c2)S1 (centres unmarked) [Example 26, 2-(2-imino-4-oxo-1,3-thiazolidin-5-yl)-N-(3-phenoxyphenyl)acetamide] | 1.5 | 1.4
N=C1NC(=O)C(CC(=O)Nc2cccc(C(=O)c3ccccc3)c2)S1 (centres unmarked) [Example 27, N-(3-benzoylphenyl)-2-(2-imino-4-oxo-1,3-thiazolidin-5-yl)acetamide] | 1.8 | 1.5
N=C1NC(=O)C(CC(=O)Nc2cccc(Cl)c2Cl)S1 (centres unmarked) [Example 28, N-(2,3-dichlorophenyl)-2-(2-imino-4-oxo-1,3-thiazolidin-5-yl)acetamide] | 1.2 | 1.0

More lines, now with the values ahead:

fold induction at 10 µM | Ratio | Structure (SMILES)
1.5 | 1.3 | N=C1NC(=O)C(CC(=O)Nc2cccc(F)c2)S1 (centres unmarked) [Example 3, N-(3-fluorophenyl)-2-(2-imino-4-oxo-1,3-thiazolidin-5-yl)acetamide]
2.2 | 2.2 | N=C1NC(=O)C(CC(=O)Nc2cccc(Cl)c2)S1 (centres unmarked) [Example 10, N-(3-chlorophenyl)-2-(2-imino-4-oxo-1,3-thiazolidin-5-yl)acetamide]
1.1 | 1.0 | N=C1NC(=O)C(CC(=O)NCc2ccc(C(F)(F)F)cc2)S1 (centres unmarked) [Example 12, 2-(2-imino-4-oxo-1,3-thiazolidin-5-yl)-N-[4-(trifluoromethyl)benzyl]acetamide]
1.3 | 1.0 | N=C1NC(=O)C(CC(=O)Nc2ccccc2)S1 (centres unmarked) [Example 17, 2-(2-imino-4-oxo-1,3-thiazolidin-5-yl)-N-phenylacetamide]
1.2 | 1.1 | N=C1NC(=O)C(CC(=O)NCc2ccccc2)S1 (centres unmarked) [Example 18, N-benzyl-2-(2-imino-4-oxo-1,3-thiazolidin-5-yl)acetamide]
1.1 | 0.9 | N=C1NC(=O)C(CC(=O)NCc2cccc(C(F)(F)F)c2)S1 (centres unmarked) [Example 19, 2-(2-imino-4-oxo-1,3-thiazolidin-5-yl)-N-[3-(trifluoromethyl)benzyl]acetamide]
1.2 | 1.1 | N=C1NC(=O)C(CC(=O)NCc2ccccc2C(F)(F)F)S1 (centres unmarked) [Example 20, 2-(2-imino-4-oxo-1,3-thiazolidin-5-yl)-N-[2-(trifluoromethyl)benzyl]acetamide]
1.2 | 1.0 | N=C1NC(=O)C(CC(=O)NCc2ccc(Cl)cc2)S1 (centres unmarked) [Example 21, N-(4-chlorobenzyl)-2-(2-imino-4-oxo-1,3-thiazolidin-5-yl)acetamide]
1.2 | 1.0 | N=C1NC(=O)C(CC(=O)NCc2cccc(Cl)c2)S1 (centres unmarked) [Example 22, N-(3-chlorobenzyl)-2-(2-imino-4-oxo-1,3-thiazolidin-5-yl)acetamide]
1.2 | 1.0 | N=C1NC(=O)C(CC(=O)NCc2ccccc2Cl)S1 (centres unmarked) [Example 23, N-(2-chlorobenzyl)-2-(2-imino-4-oxo-1,3-thiazolidin-5-yl)acetamide]
